Measured values reported in patent publication US20060127505A1, “Anti-inflammatory formulations” (priority 2002, published 2006).

Experiments:
Assay type in all cases: cell-based
[1] = tested on: TNF-α; test: TNF-α expression by PHA-stimulated human PBMC, ELISA of supernatant; conditions: PHA 50 μg/ml, 24 hours; 10^−6 M
Protocol: PBMC (2×10^6/ml) from 2 donors were stimulated with 50 μg/ml, PHA; or with astaxanthin (10^−6 M); or with the ginkgolide BN52021 (GB) (10^−4 M); or with a combination of astaxanthin (10^−6 M) plus GB (10^−4 M); or with media. Cells were cultured 24 hours at 37° C., 5% CO2 and analyzed by ELISA for supernatant concentration of TNF-α. Each data point is the mean of triplicate samples.

[2] = tested on: CD3+CD25+ lymphocytes in human PBMC; test: PHA-mediated induction of CD3+CD25+ lymphocytes in human PBMC (Example 8); conditions: PHA 50 μg/ml, 24 hours
Protocol: Cells from 3-12 asthma patients were cultured 24 hours with 50 μg/ml PHA. PBMC evaluated by 2-color flow cytometry were gated for CD3+ and analyzed for CD3+CD25+ or CD3+HLA-DR+ as a percentage of the CD3+ population. Results are reported as stimulation indices (SI) calculated as the ratio of % CD3+CD25+ cells or % CD3+HLA-DR+ cells in fully-stimulated cultures to % CD3+CD25+ or % CD3+HLA-DR+ respectively in cells treated with PHA plus ASX, GB, or combinations thereof.

[3] = tested on: CD3+CD25+ cells in human PBMC; test: T lymphocyte activation (CD3+CD25+) in PHA-stimulated PBMC of asthma patients (Example 6); conditions: PHA 50 μg/ml, 24 hours; 10^−7 M
Protocol: Experiments were carried out to determine whether formulations based on the platelet activating factor receptor (PAFR) antagonist and free radical scavenger Ginkgolide B (GB) in combination with the antioxidant carotenoid astaxanthin (ASX) suppress T cell activation in the same dose range as two commonly-used antihistamines: cetirizine dihydrochloride (CTZ/Zyrtec) and azelastine ([…]). […] Results are reported as stimulation indices (SI) of % CD3+CD25+ cells in cultures treated with PHA alone to % CD3+CD25+ cells in each drug-supplemented culture. […] Subjects for this study included 12 patients diagnosed with atopic asthma, 7 male and 5 female, ranging in age from 21 to 40 years (mean 28±1.8 years). Disease duration ranged from 2 to 12 years. Atopy was defined on the basis of one or more positive skin prick tests to a range of 20 allergens. None of the patients had received systemic therapy for at least 6 weeks prior to blood collection. The mean serum IgE was 335 (170-480) IU/ml. Venous blood for each subject was collected in polyethylene tubes containing EDTA during a one hour morning time interval. PBMC were separated by Ficoll-paque (Pharmacia, Uppsala, Sweden) density gradient centrifugation. Cells were washed and suspended in RPMI 1640 medium (Gibco BRL, Gaithersburg, Md.) at density of 1×10^6 cells/ml. PBMC were stimulated with 50 μg/ml Phytohemaglutinin (PHA) (Sigma Immunopharmaceuticals, St. Lous Mo.), or PHA plus 10^-8-10^-5 M astaxanthin (Natural Alternatives International (NAI) Inc., San Marcos Calif.); or ginkgolide B 10^-8-10^-6 M (NAI San Marcos Calif.); or selected combinations of ASX plus GB. Comparison of ASX and GB effects on T cell activation were made with two other pharmacological agents with anti-asthmatic properties by treating cells with 10^-7-10^-4 M cetirizine dihydrochloride (Pfizer Pharmaceuticals, Norwich Conn.); or 10^-7-10^-4 M azalestine hydrochloride (Wallace Pharmaceuticals, Somerset N.J.), followed by evaluation of cultures for the same biological endpoints as ASX/GB-treated cells. Each reagent was added at the outset of a 24 hours culture period, followed by harvest of cellular fraction for immunophenotyping studies. […] Two-color Flow cytometry was conducted using a Coulter Epics XL automated flow cytometer (Coulter Scientific, Hialeah, Fla., USA). Isotypic controls for the monoclonal antibodies (mAb) used to detect antigens of interest were established for each cell preparation. Positive analysis regions for cells expressing specific surface markers were set against controls and specific binding of fluorophore-conjugated mAb was analyzed by cytofluorography according to standard methods recommended by the manufacturer. Lymphocyte subpopulations were identified by position on forward and side scatter plots and live-gated. Expression of each antigen was reported as percentage cells positive for a particular T cell subpopulation defined by expression of CD3 (T lymphocyte marker) plus CD25, plus or minus standard error. Statistical analysis was performed using an independent t-test. All statistical analyses were performed using the SPSS for Windows statistical package (Norusis/SPSS, Inc.). […] The capacity of formulations evaluated in this study to suppress immune activation was measured as a stimulation index (SI), defined as the ratio of […].

## CC1=C(/C=C/C(C)=C/C=C/C(C)=C/C=C/C=C(C)/C=C/C=C(C)/C=C/C2=C(C)C(=O)[C@@H](O)CC2(C)C)C(C)(C)C[C@H](O)C1=O [astaxanthin, 3,3′-dihydroxy-4,4′-diketo-B-carotene]
[1]
  TNF-alpha: 781.34 pg/mL
[2]; 10^−4 M
  CD3+CD25+ Stimulation Index: 0.49 ± 0.09
[2]; 10^−5 M
  CD3+CD25+ Stimulation Index: 0.95 ± 0.06
[2]; 10^−6 M
  CD3+CD25+ Stimulation Index: 0.96 ± 0.10
[2]; 10^−7 M
  CD3+CD25+ Stimulation Index: 0.90 ± 0.05
[2]; 10^−8 M
  CD3+CD25+ Stimulation Index: 0.95 ± 0.05
[3]
  SI (CD3+CD25+): 0.89±0.06
